Structures are written as SMILES. Where only a bound is given, the exact number is not on record here.

The values that follow come from paper PMC10468883, “Synthesis and Anticancer Activities of Pyrazole–Thiadiazole-Based EGFR Inhibitors” (ACS Omega, 2023).

For one assay, the system named is A549 cell line. Put plainly: MTT cytotoxicity assay (24 h), A549 cell line. Type of assay: cell-based. Particulars: for SI for A549: selectivity index, NIH3T3 vs A549. As to the method:
Thanks to this color change, the cell viability rate can be determined spectrometrically.[33]Table 1 presents the results of the MTT experiment performed with the 24 h procedure using two cancer lines (A549 and MCF-7) and a healthy cell line (NIH3T3). Doxorubicin is used as a reference drug. MTT assays were performed as previously described.[34]−[36] Cytotoxicity assays of compounds 6a–6j were performed with the 24 h MTT procedure. […] These compounds include allyl (6d), phenyl (6g), and 4-chlorophenyl (6j) moieties. […] The selectivity indexes of compounds 6d, 6g, and 6j were calculated as 2.3, 7.23, and 5.68, respectively. […] It can be predicted that the side effect and toxic effect profile of compound 6g will be less than that of compounds 6d and 6j.
A general note: Formazan colour is commonly taken as a measure of viable cells.

The subject of a further assay is MCF-7 cell line. Put plainly: MTT cytotoxicity assay (24 h), MCF-7 cell line. Particulars: for IC50: MTT, 24 h, MCF-7 cell line, means of quartet assays; for SI for MCF-7: selectivity index, NIH3T3 vs MCF-7. It is filed as cell-based. As to the method:
(§1) The principle of the MTT test used to determine the metabolic activity of living cells is based on the reduction of […] 3-(4,5-dimethylthiazol-2-yl)-2,5 diphenyltetrazolium salt to the purple-colored formazan product. Thanks to this color change, the cell viability rate can be determined spectrometrically.[33]Table 1 presents the results of the MTT experiment performed with the 24 h procedure using two cancer lines (A549 and MCF-7) and a healthy cell line (NIH3T3). Doxorubicin is used as a reference drug. MTT assays were performed as previously described.[34]−[36]
(§2) Cytotoxicity assays of compounds 6a–6j were performed with the 24 h MTT procedure. […]. […] […]. […] The selectivity indexes of compounds 6d, 6g, and 6j were calculated as 2.3, 7.23, and 5.68, respectively. […] It can be predicted that the side effect and toxic effect profile of compound 6g will be less than that of compounds 6d and 6j.

For the next assay, the system named is NIH3T3 healthy cell line. The assay can be described thus: MTT cytotoxicity assay (24 h), healthy cell line NIH3T3. It is filed as cell-based. Particulars: means of quartet assays. As to the method: as §1, §2
In the next assay the test system is A549 cells. The assay can be described thus: Mitochondrial membrane potential (MMP) by flow cytometry, JC-1 dye. Particulars: substance at IC50 concentration, 24 h incubation. It is filed as cell-based. (In general: In flow cytometry, cells or beads pass a laser one at a time.)
In a further assay the target is T1, EGFR enzyme (Homo sapiens, UniProt P00533).
T1 construct: purchased
The assay can be described thus: EGFR Kinase Assay Kit inhibition assay. Conditions: in vitro kit method. It is filed as biochemical. As to the method: The EGFR Kinase Assay Kit (available from ref ([38])) was used for the EGFR inhibition. The kit protocol was followed, and the experiment was carried out in vitro.
EGFR kinase, which belongs to the ErbB family of tyrosine kinases, is known to regulate the signaling pathways of cell survival, migration, proliferation, differentiation, and adhesion.[52] Inhibition of this member of the tyrosine kinase family, which is a new approach in cancer chemotherapy, is important.

The mark [1] stands for this setting: Homo sapiens, A549, 24 h, MTT, 24 h, A549 cell line, means of quartet assays.
The mark [2] stands for this setting: MTT, 24 h, A549 cell line, means of quartet assays.

T1 sequence (P00533 25-1210): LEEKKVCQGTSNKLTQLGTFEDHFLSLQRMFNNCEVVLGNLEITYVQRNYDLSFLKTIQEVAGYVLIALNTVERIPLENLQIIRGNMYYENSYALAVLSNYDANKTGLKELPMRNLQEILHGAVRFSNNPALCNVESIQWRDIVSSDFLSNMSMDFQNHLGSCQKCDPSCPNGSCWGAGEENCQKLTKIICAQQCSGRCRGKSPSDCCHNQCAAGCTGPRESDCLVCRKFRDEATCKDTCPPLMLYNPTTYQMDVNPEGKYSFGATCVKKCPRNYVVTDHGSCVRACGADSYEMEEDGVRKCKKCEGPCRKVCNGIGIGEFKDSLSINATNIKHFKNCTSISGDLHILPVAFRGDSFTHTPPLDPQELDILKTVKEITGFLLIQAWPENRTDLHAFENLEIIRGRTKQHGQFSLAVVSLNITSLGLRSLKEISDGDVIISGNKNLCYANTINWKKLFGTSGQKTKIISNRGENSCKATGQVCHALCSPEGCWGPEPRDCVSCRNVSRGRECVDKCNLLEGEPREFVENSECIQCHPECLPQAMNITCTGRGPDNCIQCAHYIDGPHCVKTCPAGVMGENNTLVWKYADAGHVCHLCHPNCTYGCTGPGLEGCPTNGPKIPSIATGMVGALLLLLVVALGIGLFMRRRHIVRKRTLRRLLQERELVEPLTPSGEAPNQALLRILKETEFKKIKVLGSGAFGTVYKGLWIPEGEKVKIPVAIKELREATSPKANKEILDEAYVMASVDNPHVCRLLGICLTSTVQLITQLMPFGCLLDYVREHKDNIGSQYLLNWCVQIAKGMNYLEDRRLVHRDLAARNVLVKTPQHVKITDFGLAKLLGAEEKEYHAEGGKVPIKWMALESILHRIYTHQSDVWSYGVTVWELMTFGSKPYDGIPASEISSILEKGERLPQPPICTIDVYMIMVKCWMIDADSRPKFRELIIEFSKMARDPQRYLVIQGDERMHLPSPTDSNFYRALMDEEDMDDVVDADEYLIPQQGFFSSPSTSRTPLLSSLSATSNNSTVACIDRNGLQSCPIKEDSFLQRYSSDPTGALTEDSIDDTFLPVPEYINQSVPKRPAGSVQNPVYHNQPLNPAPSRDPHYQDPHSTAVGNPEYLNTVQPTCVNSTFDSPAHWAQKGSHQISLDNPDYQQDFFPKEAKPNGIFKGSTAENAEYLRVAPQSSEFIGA
Protocol for A549 cells: In the first step, A549 cells seeded in 25 mL flasks were incubated for 24 h in a 5% CO2 incubator. […] Cells were collected and centrifuged in line with the instructions in the kit at the conclusion of this period. The upper part was removed, JC-1 dye was added, and the mixture was incubated for 10–15 min at 37 °C. The CytoFLEX flow cytometer (Beckman Coulter Life Sciences, USA) and CytExpert for CytoFLEX Acquisition and Analysis Software Version 2.2.0.97 were used to read it after two washings with washing solution at the conclusion of the period.
Both the inhibitory compound and the reference drug were administered at IC50 concentrations. After a 24 h incubation period (5% CO2), mitochondrial membrane potential was determined by flow cytometry using JC-1 dye.

As usually defined, the IC50 is the midpoint of a concentration-inhibition curve. Read a low IC50 as greater potency in that assay. Take `CCNc1nnc(SCC(=O)N2N=C(c3ccccc3)CC2c2ccc([N+](=O)[O-])cc2)s1` (stereo not drawn) [Compound 6a, 2-((5-(Ethylamino)-1,3,4-thiadiazol-2-yl)thio)-1-(5-(4-nitrophenyl)-3-phenyl-4,5-dihydro-1H-pyrazol-1-yl)ethan-1-one]: the IC50 was 13.9 ± 0.25 µM in the assay on A549 cell line (setting [1]); above 100 µM in the assay on MCF-7 cell line (Homo sapiens, MCF7, 24 h); 86.7 ± 4.07 µM in the assay with NIH3T3 healthy cell line (Mus musculus, NIH3T3, 24 h). Further, in the assay with A549 cell line, the “SI for A549” value was 6.24. Moreover, the “SI for MCF-7” value in the assay on MCF-7 cell line is on record as below 0.87.

Consider `CCCNc1nnc(SCC(=O)N2N=C(c3ccccc3)CC2c2ccc([N+](=O)[O-])cc2)s1` (stereo not drawn) [Compound 6b, 1-(5-(4-Nitrophenyl)-3-phenyl-4,5-dihydro-1H-pyrazol-1-yl)-2-((5-(propylamino)-1,3,4-thiadiazol-2-yl)thio)ethan-1-one], for which the IC50 in the assay with A549 cell line (setting [1]) was 15.8 ± 0.75 µM; in the assay on MCF-7 cell line (Homo sapiens, MCF7, 24 h), 63.4 ± 2.09 µM; with NIH3T3 healthy cell line (Mus musculus, NIH3T3, 24 h), 47.2 ± 4.53 µM.

In the case of `O=C(CSc1nnc(Nc2ccc(Cl)cc2)s1)N1N=C(c2ccccc2)CC1c1ccc([N+](=O)[O-])cc1` (stereo not drawn) [Compound 6j, 2-((5-((4-Chlorophenyl)amino)-1,3,4-thiadiazol-2-yl)thio)-1-(5-(4-nitrophenyl)-3-phenyl-4,5-dihydro-1H-pyrazol-1-yl)ethan-1-one], the IC50 with A549 cell line (setting [1]) came out at 8.49 ± 0.667 µM; in the assay on A549 cell line (setting [2]), 8.49 ± 0.67 µM; in the assay on MCF-7 cell line (Homo sapiens, MCF7, 24 h) it was 67.2 ± 3.63 µM; in the assay with MCF-7 cell line it was 67.2 ± 3.63 µM; in the assay with NIH3T3 healthy cell line (Mus musculus, NIH3T3, 24 h), 48.3 ± 1.72 µM. The “SI for A549” value with A549 cell line is 5.68. In addition, in the assay with MCF-7 cell line, the “SI for MCF-7” value was determined as 0.72.

As for `CC(C)Nc1nnc(SCC(=O)N2N=C(c3ccccc3)CC2c2ccc([N+](=O)[O-])cc2)s1` (stereo not drawn) [Compound 6c, 2-((5-(Isopropylamino)-1,3,4-thiadiazol-2-yl)thio)-1-(5-(4-nitrophenyl)-3-phenyl-4,5-dihydro-1H-pyrazol-1-yl)ethan-1-one], the IC50 in the assay on A549 cell line (setting [1]) was 27.9 ± 1.28 µM; in the assay with MCF-7 cell line (Homo sapiens, MCF7, 24 h), above 100 µM; in the assay on NIH3T3 healthy cell line (Mus musculus, NIH3T3, 24 h), 33.2 ± 2.37 µM. In the assay on A549 cell line, the “SI for A549” value stood at 1.19. In the assay on MCF-7 cell line, the “SI for MCF-7” value was below 0.33.

On to `Cc1ccc(Nc2nnc(SCC(=O)N3N=C(c4ccccc4)CC3c3ccc([N+](=O)[O-])cc3)s2)cc1` (stereo not drawn) [Compound 6h, 1-(5-(4-Nitrophenyl)-3-phenyl-4,5-dihydro-1H-pyrazol-1-yl)-2-((5-(p-tolylamino)-1,3,4-thiadiazol-2-yl)thio)ethan-1-one], for which the IC50 is 29.1 ± 1.01 µM in the assay on A549 cell line (setting [1]); 92.6 ± 1.89 µM with MCF-7 cell line (Homo sapiens, MCF7, 24 h); above 100 µM in the assay with NIH3T3 healthy cell line (Mus musculus, NIH3T3, 24 h). For the same compound, in the assay with A549 cell line, the “SI for A549” value was above 3.44. Besides, in the assay with MCF-7 cell line, the “SI for MCF-7” value was above 1.08.

`COc1cccc2c1C(=O)c1c(O)c3c(c(O)c1C2=O)C[C@@](O)(C(=O)CO)C[C@@H]3O[C@H]1C[C@H](N)[C@H](O)[C@H](C)O1` [doxorubicin, reference compound]: the IC50 in the assay with A549 cell line (setting [1]) was 2.67 ± 0.12 µM; with MCF-7 cell line (Homo sapiens, MCF7, 24 h), 1.59 ± 0.1 µM; with NIH3T3 healthy cell line (Mus musculus, NIH3T3, 24 h) it was above 1000 µM. Also, the “SI for A549” value with A549 cell line was above 374.95. In the assay on A549 cells, the “mitochondrial membrane potential (P3)” value was 30.27%. Also, the “SI for MCF-7” value in the assay with MCF-7 cell line was above 629.33.

`COc1ccc(Nc2nnc(SCC(=O)N3N=C(c4ccccc4)CC3c3ccc([N+](=O)[O-])cc3)s2)cc1` (stereo not drawn) [Compound 6i, 2-((5-((4-Methoxyphenyl)amino)-1,3,4-thiadiazol-2-yl)thio)-1-(5-(4-nitrophenyl)-3-phenyl-4,5-dihydro-1H-pyrazol-1-yl)ethan-1-one]: the IC50 in the assay on A549 cell line (setting [1]) is 16.6 ± 0.21 µM; in the assay with MCF-7 cell line (Homo sapiens, MCF7, 24 h), above 100 µM; with NIH3T3 healthy cell line (Mus musculus, NIH3T3, 24 h) it was above 100 µM. In the assay with A549 cell line, the “SI for A549” value is above 6.01.

Regarding `C=CCNc1nnc(SCC(=O)N2N=C(c3ccccc3)CC2c2ccc([N+](=O)[O-])cc2)s1` (stereo not drawn) [Compound 6d, 2-((5-(Allylamino)-1,3,4-thiadiazol-2-yl)thio)-1-(5-(4-nitrophenyl)-3-phenyl-4,5-dihydro-1H-pyrazol-1-yl)ethan-1-one], the IC50 in the assay with A549 cell line (setting [1]) was 5.18 ± 0.164 µM; in the assay on A549 cell line (setting [2]), 5.18 ± 0.16 µM; with MCF-7 cell line (Homo sapiens, MCF7, 24 h) it was 35.7 ± 2.24 µM; in the assay on MCF-7 cell line it was 35.7 ± 2.24 µM; in the assay on NIH3T3 healthy cell line (Mus musculus, NIH3T3, 24 h), 11.9 ± 0.486 µM; in the assay on NIH3T3 healthy cell line it was 11.9 ± 0.49 µM. In addition, the “SI for A549” value with A549 cell line is given as 2.3. In addition, in the assay on MCF-7 cell line, the “SI for MCF-7” value is recorded as 0.33.

As for `O=C(CSc1nnc(NC2CCCCC2)s1)N1N=C(c2ccccc2)CC1c1ccc([N+](=O)[O-])cc1` (stereo not drawn) [Compound 6f, 2-((5-(Cyclohexylamino)-1,3,4-thiadiazol-2-yl)thio)-1-(5-(4-nitrophenyl)-3-phenyl-4,5-dihydro-1H-pyrazol-1-yl)ethan-1-one], the IC50 with A549 cell line (setting [1]) is above 100 µM; in the assay with MCF-7 cell line (Homo sapiens, MCF7, 24 h), above 100 µM; in the assay on NIH3T3 healthy cell line (Mus musculus, NIH3T3, 24 h), 60.5 ± 3.72 µM. Besides, the “IC50 A549” value in the assay with A549 cell line (setting [2]) is on record as “no activity”. In the assay on A549 cell line, the “SI for A549” value is reported as below 0.61. Moreover, in the assay with MCF-7 cell line, the “SI for MCF-7” value was below 0.61.

Turning to `O=C(CSc1nnc(Nc2ccccc2)s1)N1N=C(c2ccccc2)CC1c1ccc([N+](=O)[O-])cc1` (stereo not drawn) [Compound 6g, 1-(5-(4-Nitrophenyl)-3-phenyl-4,5-dihydro-1H-pyrazol-1-yl)-2-((5-(phenylamino)-1,3,4-thiadiazol-2-yl)thio)ethan-1-one], the “SI for A549” value in the assay on A549 cell line turned out to be 7.22. Besides, the “mitochondrial membrane potential (P3)” value with A549 cells turned out to be 80.93%. Further, the IC50 in the assay with MCF-7 cell line (Homo sapiens, MCF7, 24 h) came to 15.93 ± 0.054 µM; in the assay with MCF-7 cell line, 15.93 ± 0.05 µM; against EGFR enzyme it was 0.024 ± 0.002 µM; in the assay on NIH3T3 healthy cell line (Mus musculus, NIH3T3, 24 h) it was 11.1 ± 0.205 µM; in the assay on NIH3T3 healthy cell line it was 11.1 ± 0.21 µM. In the assay on MCF-7 cell line, the “SI for MCF-7” value came out at 0.70.
